What all share (type): biochemical
The target of one assay is CDK4/CycD3 (Homo sapiens (Human), UniProt P11802). In words: CDK4/CycD3 kinase Mobility Shift Assay. The method, then:
(§1) 1. CDK2, CDK4 and CDK6 Kinase Assays:
(§2) CDK2/CycA2 and CDK6/cycD3 were assayed under buffer conditions in the presence of 50 mM HEPES (pH 7.5), 10 mM MgCl2, 0.0015% Brij-35, and 2 mM dithiothreitol, CDK4/CycD3 with buffer condition of 20 mM HEPES (pH 7.5), 10 mM MgCl2, 0.01% Triton X-100, and 2 mM dithiothreitol. Prepare compounds to 50× of the final desired highest inhibitor concentration by 100% DMSO and serial dilution in 3-fold for total of 10 concentrations. […] After assay for 60 min, 180 min, 60 min respectively at 28° C., reactions were terminated with stop solution (50 mM EDTA, 0.015% Brij-35, 0.2% Coating Reagent #3 and 100 mM HEPES (pH 7.5)). Collect conversion on Caliper EZ Reader. IC50 values were calculated by fitting the dose-response curves with Xlfit excel add-in version 4.3.1.

The target of the next assay is CDK6/cycD3 (Homo sapiens (Human), UniProt Q00534). In words: CDK6/cycD3 kinase Mobility Shift Assay. Particulars: CDK6/cycD3 15 nM, ATP Km 800 μM, 60 min, 28° C. As for the experimental part:
as §1, §2

The next assay has as its target CDK2/CycA2 (Homo sapiens (Human), UniProt P24941). Briefly: CDK2/CycA2 kinase Mobility Shift Assay. Particulars: CDK2/CycA2 12 nM, ATP Km 39 μM, 60 min, 28° C. The method, then: as §1, §2
In the next assay the target is HDAC-1 (Homo sapiens (Human), UniProt Q13547). Briefly: HDAC-1 fluorogenic deacetylase assay. Particulars: recombinant, full-length protein, Ac-peptide-AMC substrate; read-out: HDAC1 (IC50). The method, then: (§3) 2. HDAC-1, HDAC-2 and HDAC-6 Assays:
(§4) The inhibitory effect of compounds on HDAC-1, HDAC-2 and HDAC-6 function was determined in vitro using an optimized homogenous assay performed in 384-well plate format. In this assay, recombinant, full-length HDAC-1, HDAC-2 or HDAC-6 protein (BPS Biosciences) was incubated with Ac-peptide-AMC with concentration in Km plot. Reactions were performed in Tris-based assay buffer and followed for fluorogenic release of 7-amino-4-methylcoumarin from substrate upon deacetylase and trypsin enzymatic activity. Fluorescence measurements were obtained using a multilabel plate reader (Synergy MX with excitation at 355 nm and emission at 460 nm). Data were analyzed on a plate-by-plate basis for the linear range of fluorescence over time. Fit the data in GraphPad Prism V5.0 software to obtain IC50 values using equation (Y=Bottom+(Top−Bottom)/(1+10^((Log IC50−X)*Hill Slope), Y is % inhibition and X is compound concentration).

The next assay addresses HDAC-6 (Homo sapiens (Human), UniProt Q9UBN7). In words: HDAC-6 fluorogenic deacetylase assay. Particulars: recombinant, full-length protein, Ac-peptide-AMC substrate; read-out: HDAC6 (IC50). As for the experimental part: as §3, §4
[1] abbreviates: CDK4/CycD3 10 nM, ATP Km 221 μM, 180 min, 28° C.

Like-named read-outs stand apart in the source and are kept apart here.

Sequence of CDK4/CycD3 (P11802 whole entry, species assumed): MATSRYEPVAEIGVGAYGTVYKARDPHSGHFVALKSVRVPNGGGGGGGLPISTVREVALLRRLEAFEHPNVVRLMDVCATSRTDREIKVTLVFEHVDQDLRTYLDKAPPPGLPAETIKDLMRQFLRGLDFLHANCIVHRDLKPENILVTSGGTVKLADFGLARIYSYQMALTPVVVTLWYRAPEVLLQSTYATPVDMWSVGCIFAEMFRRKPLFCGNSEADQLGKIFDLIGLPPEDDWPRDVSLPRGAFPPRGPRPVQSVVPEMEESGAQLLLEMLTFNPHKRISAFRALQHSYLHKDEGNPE
Sequence of CDK4/CycD3 (P30281 whole entry partner, species assumed): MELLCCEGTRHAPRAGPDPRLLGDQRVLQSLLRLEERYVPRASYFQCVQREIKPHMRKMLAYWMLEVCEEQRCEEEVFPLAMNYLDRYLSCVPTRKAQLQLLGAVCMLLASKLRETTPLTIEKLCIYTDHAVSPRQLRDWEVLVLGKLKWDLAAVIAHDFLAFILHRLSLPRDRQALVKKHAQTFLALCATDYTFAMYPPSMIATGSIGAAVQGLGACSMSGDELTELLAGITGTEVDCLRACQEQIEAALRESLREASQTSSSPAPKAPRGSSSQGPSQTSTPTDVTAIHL
Sequence of HDAC-6 (Q9UBN7 whole entry): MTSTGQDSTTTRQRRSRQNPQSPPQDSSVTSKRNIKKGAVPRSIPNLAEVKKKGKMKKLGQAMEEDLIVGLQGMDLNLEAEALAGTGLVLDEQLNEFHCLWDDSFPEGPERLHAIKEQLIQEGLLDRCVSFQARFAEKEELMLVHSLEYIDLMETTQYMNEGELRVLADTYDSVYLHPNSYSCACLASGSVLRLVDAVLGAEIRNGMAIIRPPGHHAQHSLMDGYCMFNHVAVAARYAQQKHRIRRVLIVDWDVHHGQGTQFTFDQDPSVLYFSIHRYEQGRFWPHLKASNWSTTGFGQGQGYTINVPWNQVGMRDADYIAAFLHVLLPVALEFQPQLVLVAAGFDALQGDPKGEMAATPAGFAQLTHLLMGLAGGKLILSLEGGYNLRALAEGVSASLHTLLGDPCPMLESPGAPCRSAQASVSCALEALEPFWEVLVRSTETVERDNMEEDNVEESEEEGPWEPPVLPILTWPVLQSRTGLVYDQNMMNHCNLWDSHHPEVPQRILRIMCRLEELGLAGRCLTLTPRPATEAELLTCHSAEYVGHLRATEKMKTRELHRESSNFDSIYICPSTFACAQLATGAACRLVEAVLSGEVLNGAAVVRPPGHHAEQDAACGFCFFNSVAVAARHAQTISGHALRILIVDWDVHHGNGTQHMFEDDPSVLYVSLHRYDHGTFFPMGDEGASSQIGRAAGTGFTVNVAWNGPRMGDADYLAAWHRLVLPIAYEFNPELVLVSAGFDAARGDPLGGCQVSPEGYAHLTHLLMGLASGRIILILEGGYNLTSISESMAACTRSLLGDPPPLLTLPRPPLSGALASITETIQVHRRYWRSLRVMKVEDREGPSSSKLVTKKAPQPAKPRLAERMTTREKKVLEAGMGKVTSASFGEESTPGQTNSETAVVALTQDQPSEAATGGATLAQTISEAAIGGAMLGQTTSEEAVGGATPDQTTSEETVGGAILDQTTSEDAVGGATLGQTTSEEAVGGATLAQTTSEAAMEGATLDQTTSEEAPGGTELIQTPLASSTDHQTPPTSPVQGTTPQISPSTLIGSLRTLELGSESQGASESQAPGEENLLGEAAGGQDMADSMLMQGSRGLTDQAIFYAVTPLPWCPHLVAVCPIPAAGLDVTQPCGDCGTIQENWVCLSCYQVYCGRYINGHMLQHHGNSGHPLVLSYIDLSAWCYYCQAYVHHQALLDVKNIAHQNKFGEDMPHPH
Sequence of HDAC-1 (Q13547 whole entry): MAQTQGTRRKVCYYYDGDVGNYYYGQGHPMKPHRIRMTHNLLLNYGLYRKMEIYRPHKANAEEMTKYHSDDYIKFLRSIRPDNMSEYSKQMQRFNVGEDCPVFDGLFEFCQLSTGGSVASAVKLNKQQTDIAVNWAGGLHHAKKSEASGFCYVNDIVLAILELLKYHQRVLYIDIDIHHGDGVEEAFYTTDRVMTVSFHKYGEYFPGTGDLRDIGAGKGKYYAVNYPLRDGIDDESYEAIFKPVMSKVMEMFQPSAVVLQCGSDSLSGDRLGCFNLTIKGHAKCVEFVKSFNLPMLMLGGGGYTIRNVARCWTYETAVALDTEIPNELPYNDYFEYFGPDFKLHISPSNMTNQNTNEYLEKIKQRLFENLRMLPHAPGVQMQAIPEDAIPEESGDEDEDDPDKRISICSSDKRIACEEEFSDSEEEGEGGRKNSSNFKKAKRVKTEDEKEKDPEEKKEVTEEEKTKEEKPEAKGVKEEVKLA
Sequence of CDK6/cycD3 (Q00534 whole entry, species assumed): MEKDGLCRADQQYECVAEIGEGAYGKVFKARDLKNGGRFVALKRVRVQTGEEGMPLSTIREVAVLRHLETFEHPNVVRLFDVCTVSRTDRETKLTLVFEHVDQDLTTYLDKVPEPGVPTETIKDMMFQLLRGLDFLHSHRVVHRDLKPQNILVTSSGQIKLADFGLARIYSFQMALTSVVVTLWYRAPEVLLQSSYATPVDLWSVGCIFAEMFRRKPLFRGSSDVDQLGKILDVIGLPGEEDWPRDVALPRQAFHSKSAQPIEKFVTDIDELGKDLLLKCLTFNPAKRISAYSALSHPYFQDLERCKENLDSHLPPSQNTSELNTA
Sequence of CDK6/cycD3 (P30281 whole entry partner, species assumed): as the sequence (P30281 whole entry partner, species assumed) above

Regarding `CC(=O)c1c(C)c2cnc(Nc3ccc(N4CCN(Cc5ccc(C(=O)NO)cc5)CC4)cn3)nc2n(C2CCCC2)c1=O` [Compound 16, 4-((4-(6-((6-acetyl-8-cyclopentyl-5-methyl-7-oxo-7,8-dihydropyrido[2,3-d]pyrimidin-2-yl)amino)pyridin-3-yl)piperazin-1-yl)methyl)-N-hydroxybenzamide], the IC50 was under 10 nM at CDK4/CycD3 (setting [1]); under 50 nM at CDK6/cycD3; over 1000 nM at CDK2/CycA2; under 500 nM on HDAC-1; under 10 nM at HDAC-6.
As for `CC(=O)c1c(C)c2cnc(Nc3ccc(N4CCN(CCCCCCC(=O)NO)CC4)cn3)nc2n(C2CCCC2)c1=O` [Compound 14, 7-(4-(6-(6-acetyl-8-cyclopentyl-5-methyl-7-oxo-7,8-dihydropyrido[2,3-d]pyrimidin-2-ylamino)pyridin-3-yl)piperazin-1-yl)-N-hydroxyheptanamide], the IC50 on CDK4/CycD3 (setting [1]) is under 10 nM; on CDK6/cycD3, under 10 nM; on HDAC-1 it was under 500 nM; on HDAC-6, under 50 nM.
On to `CC(=O)c1c(C)c2cnc(Nc3ccc(N4CCN(CCCCCCCC(=O)NO)CC4)cn3)nc2n(C2CCCC2)c1=O` [Compound 15, 8-(4-(6-((6-acetyl-8-cyclopentyl-5-methyl-7-oxo-7,8-dihydropyrido[2,3-d]pyrimidin-2-yl)amino)pyridin-3-yl)piperazin-1-yl)-N-hydroxyoctanamide], for which the IC50 at CDK4/CycD3 (setting [1]) is under 10 nM; at CDK6/cycD3, under 25 nM; on CDK2/CycA2, over 1000 nM; at HDAC-1 it was under 500 nM; on HDAC-6 it was under 50 nM.
For the compound `CC(=O)c1c(C)c2cnc(Nc3ccc(N4CC5CNCC(C4)C5(F)F)cn3)nc2n(C2CCCC2)c1=O` (single isomer, unassigned) [Compound 4-1, 6-acetyl-8-cyclopentyl-2-(5-(9,9-difluoro-3,7-diazabicyclo[3.3.1]nonan-3-yl)pyridin-2-ylamino)-5-methylpyrido[2,3-d]pyrimidin-7(8H)-one], the IC50 was under 25 nM on CDK4/CycD3 (setting [1]), under 100 nM on CDK6/cycD3 and under 1000 nM on CDK2/CycA2.
For the compound `CC(=O)c1c(C)c2cnc(Nc3ccc4c(n3)CCNC4)nc2n(C2CCCC2)c1=O` [Compound 8, 6-acetyl-8-cyclopentyl-5-methyl-2-(5,6,7,8-tetrahydro-1,6-naphthyridin-2-ylamino)pyrido[2,3-d]pyrimidin-7(8H)-one], the IC50 was under 10 nM on CDK4/CycD3, under 100 nM on CDK6/cycD3 and over 1000 nM on CDK2/CycA2.
Regarding `CC(=O)c1c(C)c2cnc(Nc3ccc(N4CC5CNCC(C4)C5(F)F)cn3)nc2n(C2CCCC2)c1=O` [Compound 4-2, 6-acetyl-8-cyclopentyl-2-(5-(9,9-difluoro-3,7-diazabicyclo[3.3.1]nonan-3-yl)pyridin-2-ylamino)-5-methylpyrido[2,3-d]pyrimidin-7(8H)-one], the IC50 on CDK4/CycD3 (setting [1]) is under 50 nM; at CDK6/cycD3, under 100 nM.
Regarding `CC(=O)c1c(C)c2cnc(Nc3ccc(N4CC5CNCC(C5)C4)cn3)nc2n(C2CCCC2)c1=O` [Compound 1, 2-(5-(3,7-diazabicyclo[3.3.1]nonan-3-yl)pyridin-2-ylamino)-6-acetyl-8-cyclopentyl-5-methylpyrido[2,3-d]pyrimidin-7(8H)-one], the IC50 at CDK4/CycD3 (setting [1]) is under 10 nM; at CDK6/cycD3, under 25 nM; on CDK2/CycA2 it was over 5000 nM.
`CC(=O)c1c(C)c2cnc(Nc3ccc(C(=O)NCCCCCCC(=O)NO)cn3)nc2n(C2CCCC2)c1=O` [Compound 18, 6-((6-acetyl-8-cyclopentyl-5-methyl-7-oxo-7,8-dihydropyrido[2,3-d]pyrimidin-2-yl)amino)-N-(7-(hydroxyamino)-7-oxoheptyl)nicotinamide]: the IC50 was under 50 nM on CDK4/CycD3 (setting [1]); under 1000 nM on CDK6/cycD3; over 1000 nM on CDK2/CycA2; under 50 nM at HDAC-1; under 10 nM at HDAC-6.
For `CC(=O)c1c(C)c2cnc(Nc3ccc(N4CCN(C(=O)CCCC(=O)NO)CC4)cn3)nc2n(C2CCCC2)c1=O` [Compound 13, 5-(4-(6-(6-acetyl-8-cyclopentyl-5-methyl-7-oxo-7,8-dihydropyrido[2,3-d]pyrimidin-2-ylamino)pyridin-3-yl)piperazin-1-yl)-N-hydroxy-5-oxopentanamide], the IC50 is under 25 nM on CDK4/CycD3 (setting [1]), under 50 nM at CDK6/cycD3 and over 1000 nM on CDK2/CycA2.
As to `CC(=O)c1c(C)c2cnc(Nc3ccc(N4CCCC5(CCNCC5)C4)cn3)nc2n(C2CCCC2)c1=O` [Compound 6, 2-(5-(2,9-diazaspiro[5.5]undecan-2-yl)pyridin-2-ylamino)-6-acetyl-8-cyclopentyl-5-methylpyrido[2,3-d]pyrimidin-7(8H)-one], the IC50 at CDK4/CycD3 (setting [1]) was under 10 nM; on CDK6/cycD3, under 25 nM; at CDK2/CycA2 it was over 5000 nM.
In the case of `CC(=O)c1c(C)c2cnc(Nc3ccc(N4CCN(C(=O)CCCCCCC(=O)NO)CC4)cn3)nc2n(C2CCCC2)c1=O` [Compound 12, 8-(4-(6-(6-acetyl-8-cyclopentyl-5-methyl-7-oxo-7,8-dihydropyrido[2,3-d]pyrimidin-2-ylamino)pyridin-3-yl)piperazin-1-yl)-N-hydroxy-8-oxooctanamide], the half-inhibitory concentration (IC50) at CDK4/CycD3 (setting [1]) was under 10 nM; on CDK6/cycD3, under 25 nM; at CDK2/CycA2, over 10000 nM; at HDAC-1 it was under 50 nM; at HDAC-6 it was under 10 nM.
`CC(=O)c1c(C)c2cnc(Nc3ccc(N4CCC5(CC4)CNC5)cn3)nc2n(C2CCCC2)c1=O` [Compound 3, 2-(5-(2,7-Diazaspiro[3.5]nonan-7-yl)pyridin-2-ylamino)-6-acetyl-8-cyclopentyl-5-methylpyrido[2,3-d]pyrimidin-7(8H)-one]: the values for the IC50 at CDK4/CycD3 (setting [1]), at CDK6/cycD3 and at CDK2/CycA2 were under 10 nM, under 25 nM and over 5000 nM, respectively.
For the compound `CC(=O)c1c(C)c2cnc(Nc3ccc(C(=O)NO)cn3)nc2n(C2CCCC2)c1=O` [Compound 17, 6-((6-acetyl-8-cyclopentyl-5-methyl-7-oxo-7,8-dihydropyrido[2,3-d]pyrimidin-2-yl)amino)-N-hydroxynicotinamide], the IC50 at CDK4/CycD3 (setting [1]) is under 50 nM; on CDK6/cycD3, under 500 nM; on CDK2/CycA2, over 1000 nM; on HDAC-1, under 500 nM; on HDAC-6, under 50 nM.
Take `CC(=O)c1c(C)c2cnc(Nc3ccc(N4CC5CNCC(C4)O5)cn3)nc2n(C2CCCC2)c1=O` [Compound 2, 2-(5-(9-oxa-3,7-diazabicyclo[3.3.1]nonan-3-yl)pyridin-2-ylamino)-6-acetyl-8-cyclopentyl-5-methylpyrido[2,3-d]pyrimidin-7(8H)-one]: the IC50 at CDK4/CycD3 (setting [1]) was under 25 nM; on CDK6/cycD3, under 100 nM; on CDK2/CycA2, over 5000 nM.

In general, IC50 refers to the concentration needed to halve the response being measured.

These data come from patent US11225492B2, “Heterocycles useful as anti-cancer agents” (Hangzhou Innogate Pharma Co., Ltd., priority 2015, dated 2022).
